Patent US20090298903A1, “USE OF TETRAMIC ACID DERIVATIVES FOR INSECT CONTROL” (priority 2006, published 2009)

Key:
Format in all cases: in vivo
[1] = system: Frankliniella occidentalis; assay: Example 2: bell peppers against Frankliniella occidentalis; conditions: Acrinathrin 60, (I-9) 54, (I-4) 60 g a.s./ha, (I-9)/(I-4) 240 SC + 0.1% rapeseed oil methyl ester
Protocol: Plots 10 m^2 in size which are planted with bell peppers cv. “Zingaro” are treated, in three replications, against Frankliniella occidentalis. The application is effected with a knapsack sprayer which is operated with pressurized air. Here, the active substances Example (I-9) (240 SC) and Example (I-4) (240 SC), in the form of a tank mix together with 0.1% a.s. rapeseed oil methyl ester (500 EW) and the commercial standard acrinathrin (075 EW), are applied at the specified application rates. Two applications are carried out at an interval of 24 days, with a water application rate of 1000 l/ha.
The test is evaluated 17 and 21 days after treatment 1 and 4 days after treatment 2 by scoring the destruction of the animals (nymphs) on the flowers.

[2] = system: Frankliniella occidentalis; assay: Example 5: aubergines against Frankliniella occidentalis; conditions: mixed populations on leaves
Protocol: Plots 6 m^2 in size which are planted with aubergines cv. “Soraya” are treated, in three replications, against Frankliniella occidentalis. The application is effected with a motor-operated knapsack sprayer. Here, the active substances Example (I-4) (240 SC) and Example (I-9) (240 SC), in a tank mix together with 0.1% a.s. rapeseed oil methyl ester (500 EW) and the commercial standard Spinosad (480 SC), are tested at the specified application rates. The water application rate is 1500 l/ha.
The test is evaluated 25, 32 and 39 days after the treatment by scoring the destruction rate of the mixed populations on the leaves.

Thrips tabaci [3] = assay: Example 6: onions against Thrips tabaci; conditions: population on leaves
Protocol: Plots 15 m^2 in size which are planted with onions are treated, in two replications, against Thrips tabaci. The application is effected with a knapsack sprayer which is operated with pressurized air. Here, the active substances Example (I-4), in a tank mix together with 0.2% a.s. rapeseed oil methyl ester (500 EW) and the commercial standard dimethoate and (380 EC), are tested at the specified application rates in a tank mix with 0.9% a.s. E-actipron (900 EC). The water application rate is 300 l/ha.
The test was evaluated 43 and 62 days after the treatment by scoring the destruction rate of the population on the leaves.

Thrips tabaci [4] = assay: Example 11: dwarf beans against Thrips tabaci
Protocol: Plots approx. 26 m^2 in size which are planted with dwarf beans are treated 16 days after emergence against Thrips tabaci, in four replications. The application is carried out with a knapsack sprayer which is operated with pressurized air. Here, the active substances Example (I-2) (240 SC) (I-4) (240 SC) and Example (I-9) (240 SC), in a tank mix with 0.1% a.s. rapeseed oil methyl ester (500 EW), are tested against the commercial standard Profenofos (720 EC) at the specified application rates. The water application rate is 1000 l/ha. Two applications are carried out at an interval of 10 days.
The test is evaluated 5 and 11 days after the first treatment by scoring the destruction rate of the nymphs on the leaves.

Dacus ciliatus = assay: Example 22A: bottle gourds against Dacus ciliatus
Protocol: Plots approx. 10 m^2 in size which are planted with bottle gourds cv. “Waltham” are treated, in three replications, against Dacus ciliatus. The application is carried out with a motor-operated knapsack sprayer. Here, the active substance Example (I-4) (150 OD) and the commercial standard Fenthion (500 EC) are tested at the specified application rates. Three applications are carried out at in each case an interval of 7 days. The water application rate is approx. 500 l/ha.
The test is evaluated 8, 14 and 21 days after treatment 1 by scoring the infestation of the fruits.

[5] = system: Leptinotarsa decemlineata; assay: Example 23: potatoes against Leptinotarsa decemlineata
Protocol: Plots approx. 10 m^2 in size which are planted with potatoes “Quarta” are treated, in three replications, against Leptinotarsa decemlineata. The application is carried out with a knapsack sprayer operated with pressurized air. Here, the active substance Example (I-4) (240 SC), in a tank mix together with 0.2% a.s. rapeseed oil methyl ester (500 EW) and the commercial standard Deltamethrin (100 EC), is tested at the specified application rate. The water application rate is 300 l/ha.
The test is evaluated 3, 8 and 20 days after the treatment by scoring the destruction rate of the animals (larvae) on the plants.

Ceutorhynchus napi = assay: Example 26-A: oilseed rape against Ceutorhynchus napi; conditions: 55 d after treatment, larvae, Deltamethrin (25 EC) 5, (I-4) (+ 0.2% rapeseed oil methyl ester) 72, Thiacloprid (OD 240) 72, Lambda-cyhalothrin 5 g a.s./ha
Protocol: Plots approx. 25 m^2 in size which are planted with oilseed rape cv. “Artus” are treated, in four replications, against Ceutorhynchus napi. The application is carried out with a motor-operated knapsack sprayer. Here, the active substance Example (I-4), in a tank mix with 0.2% a.s. rapeseed oil methyl ester (500 EW) and the commercial standards Deltamethrin (25 EC), lambda-cyhalothrin (S100) and Thiacloprid (OD 240), is tested at the specified application rates. The water application rate is 250 l/ha.
The test is evaluated 55 days after the treatment by scoring the destruction rate of the larvae on the plants.

CCOC(=O)OC1=C(c2cc(C)ccc2C)C(=O)N[C@]12CC[C@@H](OC)CC2 [Example (I-4)]
Efficacy (% Abbott) 4 d (2) ([1]; 4 d after treatment 2, nymphs on flowers): 80 % Abbott
Efficacy (% Abbott) 17 d (1) ([1]; 17 d after treatment 1, nymphs on flowers): 71 % Abbott
Efficacy (% Abbott) 21 d (1) ([1]; 21 d after treatment 1, nymphs on flowers): 85 % Abbott
Efficacy (% Abbott) 25 d ([2]; 25 d after treatment, Spinosad (480 SC) 0.012, (I-9) 0.0054, (I-4) 0.012 % a.s., 240 SC + 0.1% rapeseed oil methyl ester): 92.1 % Abbott
Efficacy (% Abbott) 32 d ([2]; 32 d after treatment, Spinosad 0.012, (I-9) 0.0054, (I-4) 0.012 % a.s.): 88.3 % Abbott
Efficacy (% Abbott) 39 d ([2]; 39 d after treatment, Spinosad 0.012, (I-9) 0.0054, (I-4) 0.012 % a.s.): 89.7 % Abbott
Efficacy (% Abbott) 43 d (Thrips tabaci [3]; 43 d after treatment, Dimethoate (380 EC + 0.9% E-actipron) 380, (I-4) (+ 0.2% rapeseed oil methyl ester) 96 g a.s./ha): 83.0 % Abbott
Efficacy (% Abbott) 62 d (Thrips tabaci [3]; 62 d after treatment, Dimethoate 380, (I-4) 96 g a.s./ha): 84.5 % Abbott
Efficacy (% Abbott) 5 d (Thrips tabaci [4]; 5 d after first treatment, nymphs on leaves, Profenofos (720 EC) 1300, (I-9) 54, (I-2) 54, (I-4) 60 g a.s./ha, 240 SC + 0.1% rapeseed oil methyl ester): 60 % Abbott
Efficacy (% Abbott) 11 d (Thrips tabaci [4]; 11 d after first treatment (second application at 10 days), Profenofos 1300, (I-9) 54, (I-2) 54, (I-4) 60 g a.s./ha): 90 % Abbott
Efficacy (% Abbott) 8 d (Dacus ciliatus; 8 d after treatment 1, infestation of fruits, Fenthion (500 EC) 300, (I-4) (150 OD) 200 g a.s./ha, three applications, 7-day intervals): 59.5 % Abbott
Efficacy (% Abbott) 14 d (Dacus ciliatus; 14 d after treatment 1, Fenthion 300, (I-4) 200 g a.s./ha): 48.9 % Abbott
Efficacy (% Abbott) 21 d (Dacus ciliatus; 21 d after treatment 1, Fenthion 300, (I-4) 200 g a.s./ha): 44.5 % Abbott
Efficacy (% Abbott) 3 d ([5]; 3 d after treatment, larvae, Deltamethrin (100 EC) 75, (I-4) (240 SC + 0.2% rapeseed oil methyl ester) 72 g a.s./ha): 53.3 % Abbott
Efficacy (% Abbott) 8 d ([5]; 8 d after treatment, Deltamethrin 75, (I-4) 72 g a.s./ha): 72.7 % Abbott
Efficacy (% Abbott) 20 d ([5]; 20 d after treatment, Deltamethrin 75, (I-4) 72 g a.s./ha): 84.4 % Abbott
Efficacy (% Abbott) 55 d (Ceutorhynchus napi): 74.3 % Abbott
